Reference: patent publication US4933336A, “Thiadiazinone, oxadiazinone and triazinone derivatives, and their use for treating acute or chronic heart disease” (Laboratoires Sobio S.A., priority 1987, dated 1990)
Where two headings read alike, the source gives them in different places. Each block holds one compound with its values, some of them ahead of it.

Columns and labels:
[1] = test system: Canine cardiac myofibrillar Ca++-dependent Mg++ ATPase; experiment: Measurement of myofibrillar Ca++-dependent Mg++ATPase activity (Ca++ sensitivity and maximal activity); assay type: biochemical, canine (dog); conditions: pH 7.0, 21° C.
Procedure: 1. Measurement of myofibrillar Ca++-dependent Mg++ATPase activity
the effect on myofibrillar Ca++sensitivity and on maximal activity of myofibrillar Ca++-dependent Mg++-ATPase was determined on canine cardiac myofibrils.
(a) Contractile protein preparation
Cardiac myofibrils free of membrane contaminants were prepared from left ventricular tissue of dog hearts using a modification of the method described by SOLARO et al, Biochem. Biophys. Acta, 245, 259-262, (1971). Before centrifugration, the heart homogenate was filtered through gauze.
After Triton X-100 treatments, the myofibrillar fraction was washed once by resuspension and centrifugation in 10 volumes of 1 mM EGTA, […], 30 mM imidazole, 2 mM MgCl2, pH 7.0. The pellet was then washed three times in 10 volumes of the same buffer without EGTA. Before the last centrifugation, the suspension of myofibrils was filtered through a stainless steel sieve with 0.25 mm meshes.
Myofibrils were kept in pellet overnight. Before use, the pellet was suspended in a small amount of buffer, the protein concentration was determined by the method of BRADFORD M., Anal. Biochem., 1976, 72, 248 and adjusted in order to have a concentration between 6 and 7 mg/ml.
(b) Myofibrillar ATPase activity
Ca++-dependent myfibrillar ATPase activity was determined at 21° C., pH 7.0, by measuring the rate of release of inorganic phosphate. All assays were performed within 24 hrs. of final purification, using the method described by SOLARO and RUEGG, CIRC. RES., 51, 290-4, (1982). Reaction mixtures (4 ml) containing 0.6-0.7 mg/ml myofibrillar protein, 80 mM KCl, 20 mM imidazole, 3 mM […], 1 mM EGTA, the desired amount of CaCl2, and the indicated concentration of drug or appropriate vehicle were preincubated for 6 min. prior to assay. The amount of CaCl2 was varied between 0 and 0.9 mM and the pCA (-log free Ca++) computed using 2.514×10^6 M^-1 as the apparent affinity of Ca++for EGTA at pH 7.0.
Reactions were initiated by the addition of Na2 ATP to final concentration of 2 mM. After an incubation period of 12 min., reactions were quenched by the addition of an equal volume of ice-cold 10% trichloroacetic acid. The protein was pelleted by centrifugation (2000 g, 15 min.) and Pi was assayed in the supernatant fraction using a modification of the method described by LANZETTA et al, Anal. Biochem., 100, 95-97, (1979).
The following solutions were prepared:
(1) 3.7% ammonium heptamolybdate in 0.12N H2 SO4
(2) 0.074% malachite green oxalate in 1% polyvinylic alcohol.
the colour reagent was prepared by mixing an equal volume of solution (1) and (2) 15 min. before the assay. For the assay, 1700 μl of 1% H2 SO4 and 1 ml of colour reagent were added to 100 μl of sample. Colour development occurred at room temperature for 30 min. and was quenched by the addition of 200 μl of 1M tri-potassium citrate. The absorbance was measured at 620 millimicrons.
The effect of each compound, tested at the indicated concentration, on the relation between pCa and percent activation was determined taking 100% for the maximum ATPase activity obtained with vehicle alone. The effect on Ca++ sensitivity was quantified by measuring the shift of the pCa giving 50% of the maximal control ATPase activity.
The effect on maximal ATPase activity was expressed as the percent change of ATPase activity for pCa=5.47.

[2] = test system: conscious instrumented Dog; experiment: Cardiotonic activity in the conscious instrumented Dog; assay type: in vivo, dog (male Beagle); conditions: Canis lupus familiaris, po; for change in vivo at 0.3 mg/kg: 0.30 mg/kg p.o.; for change in vivo at 0.03 mg/kg: 0.03 mg/kg p.o.; for change in vivo at 0.01 mg/kg: 0.01 mg/kg p.o.; for change in vivo at 10 mg/kg: 10.00 mg/kg p.o.; for change in vivo at 3 mg/kg: 3.00 mg/kg p.o.
Procedure: Cardiotonic activity in the conscious instrumented Dog
Male Beagle dogs, at least 2 years old, weighing 12 to 18 kg were anaesthetised with pentobarbital sodium (30 mg/kg i.v.). Respiration was maintained by a Harward pump, model 613a. The heart was exposed through a left thoracotomy and a pericardial cardle was formed. A high fidelity micromanometer (Koenigsberg P5 -P7) was inserted into left venitricular lumen through a stab incision at the apex. Wires were exteriorised to the back of the animals, placed into a size adapted jacket, and the chest closed. The experiments were conducted on the conscious dogs, 1 or 2 weeks after the surgery, when the animals had completely recovered.
Measured parameters were : first derivative of left ventricular pressure, (dP/dt, mmHg/sec); heart rate (HR, beats/min.). A control period recording of 90 min. was made with the dogs placed in a quiet room, the recordings being made outside. Compounds to be tested were administered orally in gelatin capsules and the parameters measured for 5 hrs. at least.
Results were expressed as the percentage of the maximum±SEM.

[3] = read-out: H.R. (heart rate), percentage of the maximum ± SEM
[4] = read-out: dP/dt Max (first derivative of left ventricular pressure), percentage of the maximum ± SEM

SMILES: CSC1(C)C(=O)Nc2ccc(C3=NNC(=O)SC3)cc21 (centres unmarked) [Example 1, 1,3-Dihydro-5-(3,6-dihydro-2-oxo-2H-1,3,4-thiadiazin-5-yl)-3-methyl-3-methylthio-2H-indol-2-one]
Max ATPase activity (%) (percent change of ATPase activity for pCa=5.47) ([1]; 20 × 10^-5 molar): -3 ± 2%
Ca2+ sensitivity p CA50 (shift of the pCa giving 50% of the maximal control ATPase activity) ([1]; 20 × 10^-5 molar): 0.38 ± 0.03
change in vivo at 0.3 mg/kg [2, 3]: 17%
change in vivo at 0.3 mg/kg [2, 4]: 53%

SMILES: CC1C(=O)Nc2ccc(C3=NNC(=O)SC3)cc21 (centres unmarked) [Example 4, 1,3-Dihydro-5-(3,6-dihydro-2-oxo-2H-1,3,4-thiadiazin-5-yl)-3-methyl-2H-indol-2-one]
Max ATPase activity (%) (percent change of ATPase activity for pCa=5.47) ([1]; 20 × 10^-5 molar): -6 ± 2%
Ca2+ sensitivity p CA50 (shift of the pCa giving 50% of the maximal control ATPase activity) ([1]; 20 × 10^-5 molar): 0.15 ± 0.03

SMILES: CC1SC(=O)NN=C1c1ccc2c(c1)C1(CCCC1)C(=O)N2 (centres unmarked) [Example 6, 5'-(3,6-Dihydro-6-methyl-2-oxo-2H-1,3,4-thiadiazin-5-yl)-spiro[cyclopentane-1,3'-[3H]-indol]-2'(1'H)one]
change in vivo at 0.3 mg/kg [2, 3]: 7%
change in vivo at 0.3 mg/kg [2, 4]: 33%

SMILES: CSC1(C)C(=O)N(C(C)=O)c2ccc(C3=NNC(=O)SC3)cc21 (centres unmarked) [Example 9, 1-Acetyl-1,3-dihydro-5-(3,6-dihydro-2-oxo-2H-1,3,4-thiadiazin-5-yl)-3-methyl-3-methylthio-2H-indol-2-one]
change in vivo at 10 mg/kg [2, 3]: 16%
change in vivo at 10 mg/kg [2, 4]: 68%

SMILES: CSC1C(=O)Nc2ccc(C3=NNC(=O)SC3)cc21 (centres unmarked) [Example 11, 1,3-Dihydro-5-(3,6-dihydro-2-oxo-2H-1,3,4-thiadiazin-5-yl) -3-methylthio-2H-indol-2-one]
Max ATPase activity (%) (percent change of ATPase activity for pCa=5.47) ([1]; 20 × 10^-5 molar): +1 ± 0%
Ca2+ sensitivity p CA50 (shift of the pCa giving 50% of the maximal control ATPase activity) ([1]; 20 × 10^-5 molar): 0.36 ± 0.05
change in vivo at 3 mg/kg [2, 3]: 7%
change in vivo at 3 mg/kg [2, 4]: 51%

SMILES: CC1SC(=O)NN=C1c1ccc2c(c1)C(=O)C(=O)N2 (centres unmarked) [Example 12, 5-(3,6-Dihydro-6-methyl-2-oxo-2H-1,3,4-thiadiazin-5-yl)-1H-indole-2,3-dione]
change in vivo at 0.3 mg/kg [2, 3]: 10%
change in vivo at 0.3 mg/kg [2, 4]: 51%

SMILES: CC1SC(=O)NN=C1c1ccc2c(c1)C1(CC1)C(=O)N2 (centres unmarked) [Example 16, 5'-(3,6-Dihydro-6-methyl-2-oxo-2H-1,3,4 thiadiazin-5-yl) -spiro[cyclopropane-1,3'-[3H]indol]-2'-(1'H)-one]
change in vivo at 0.03 mg/kg [2, 3]: 21%
change in vivo at 0.03 mg/kg [2, 4]: 105%

SMILES: CC1SC(=O)NN=C1c1ccc2c(c1)C(C)(C)C(=O)N2C(=O)c1ccccc1 (centres unmarked) [Example 22, 1-Benzoyl-1,3-dihydro-5-(3,6-dihydro-6-methyl-2-oxo-2H-1,3,4-thiadiazin-5-yl)-3,3-dimethyl-2H-indol-2-one]
change in vivo at 0.03 mg/kg [2, 3]: 14%
change in vivo at 0.03 mg/kg [2, 4]: 56%

SMILES: CC1NC(=O)NN=C1c1ccc2c(c1)C(C)(C)C(=O)N2 (centres unmarked) [Example 37, 1,3-Dihydro-5-(1,2,3,6-tetrahydro-6-methyl-2-oxo-1,3,4-triazin-5-yl)-3,3-dimethyl-2H-indol-2-one]
change in vivo at 0.03 mg/kg [2, 3]: 24%
change in vivo at 0.03 mg/kg [2, 4]: 85%

Continued, in another order:

Max ATPase activity (%) (percent change of ATPase activity for pCa=5.47) ([1]; 20 × 10^-5 molar): -9 ± 2%
Ca2+ sensitivity p CA50 (shift of the pCa giving 50% of the maximal control ATPase activity) ([1]; 20 × 10^-5 molar): 0.16 ± 0.07
SMILES: CC1(C)C(=O)Nc2ccc(C3=NNC(=O)SC3)cc21 [Example 2, 1,3-Dihydro-5-(3,6-dihydro-2-oxo-2H-1,3,4-thiadiazin-5-yl)-3,3,-dimethyl-2H-indol-2-one]

Max ATPase activity (%) (percent change of ATPase activity for pCa=5.47) ([1]; 20 × 10^-5 molar): -12 ± 2%
Ca2+ sensitivity p CA50 (shift of the pCa giving 50% of the maximal control ATPase activity) ([1]; 20 × 10^-5 molar): 0.32 ± 0.06
SMILES: CC1SC(=O)NN=C1c1ccc2c(c1)C(C)(C)C(=O)N2 (centres unmarked) [Example 3]
change in vivo at 0.03 mg/kg [2, 3]: 8%
change in vivo at 0.03 mg/kg [2, 4]: 71%

Max ATPase activity (%) (percent change of ATPase activity for pCa=5.47) ([1]; 20 × 10^-5 molar): -8 ± 1%
Ca2+ sensitivity p CA50 (shift of the pCa giving 50% of the maximal control ATPase activity) ([1]; 20 × 10^-5 molar): 0.40 ± 0.08
SMILES: CSC1(C)C(=O)Nc2ccc(C3=NNC(=O)SC3C)cc21 (centres unmarked) [Example 5, 1,3-Dihydro-5-(3,6-dihydro-6-methyl-2-oxo-2H-1,3,4-thiadiazin-5-yl)-3-methyl-3-methylthio-2H-indol-2-one]
change in vivo at 0.03 mg/kg [2, 3]: 16%
change in vivo at 0.03 mg/kg [2, 4]: 45%

Max ATPase activity (%) (percent change of ATPase activity for pCa=5.47) ([1]; 20 × 10^-5 molar): -2 ± 3%
Ca2+ sensitivity p CA50 (shift of the pCa giving 50% of the maximal control ATPase activity) ([1]; 20 × 10^-5 molar): 0.37 ± 0.06
SMILES: CC(=O)N1C(=O)C(C)(C)c2cc(C3=NNC(=O)SC3C)ccc21 (centres unmarked) [Example 7, 1-Acetyl-1,3-dihydro-5-(3,6-dihydro-6-methyl-2-oxo-H-1,3,4-thiadiazin-5-yl)3,3-dimethyl-2H-indol-2-one]
change in vivo at 0.01 mg/kg [2, 3]: 9%
change in vivo at 0.01 mg/kg [2, 4]: 41%

Max ATPase activity (%) (percent change of ATPase activity for pCa=5.47) ([1]; 3 × 10^-5 molar): -9 ± 5%
Ca2+ sensitivity p CA50 (shift of the pCa giving 50% of the maximal control ATPase activity) ([1]; 3 × 10^-5 molar): 0.36 ± 0.02
SMILES: CSC1C(=O)Nc2ccc(C3=NNC(=O)SC3C)cc21 (centres unmarked) [Example 10, 1,3-Dihydro-5-(3,6-dihydro-6-methyl-2-oxo-2H-1,3,4-thiadiazin-5-yl)-3-methylthio-2H-indol-2-one]

Max ATPase activity (%) (percent change of ATPase activity for pCa=5.47) ([1]; 3 × 10^-5 molar): -4 ± 1%
Ca2+ sensitivity p CA50 (shift of the pCa giving 50% of the maximal control ATPase activity) ([1]; 3 × 10^-5 molar): 0.37 ± 0.11
SMILES: CSC1(SC)C(=O)Nc2ccc(C3=NNC(=O)SC3C)cc21 (centres unmarked) [Example 15, 1,3-Dihydro-5-(3,6-dihydro-6-methyl-2-oxo-2H-1,3,4-thiadiazin-5-yl)-3.3-di(methylthio)-2H-indol-2 one]

Max ATPase activity (%) (percent change of ATPase activity for pCa=5.47) ([1]; 3 × 10^-5 molar): +2 ± 2%
Ca2+ sensitivity p CA50 (shift of the pCa giving 50% of the maximal control ATPase activity) ([1]; 3 × 10^-5 molar): 0.15 ± 0.01
SMILES: CC1SC(=O)NN=C1c1ccc2c(c1)C(C)(C)C(=O)N2C(=O)Oc1ccccc1 (centres unmarked) [Example 40, Phenyl 2,3-dihydro-5-(3,6-dihydro-6-methyl-2-oxo-2H-1,3,4-thiadiazin-5-yl)-3,3-dimethyl-2-oxo-1H-indole-1-carboxylate]

Max ATPase activity (%) (percent change of ATPase activity for pCa=5.47) ([1]; 3 × 10^-5 molar): -9 ± 2%
Ca2+ sensitivity p CA50 (shift of the pCa giving 50% of the maximal control ATPase activity) ([1]; 3 × 10^-5 molar): 0.17 ± 0.03
SMILES: CC1SC(=O)NN=C1c1ccc2c(c1)C(C)(C)C(=O)N2C(=O)c1ccc(N)cc1 (centres unmarked) [Example 42, 1,3-Dihydro-5-(3,6-dihydro-6-methyl-2-oxo-2H-1,3,4-thiadiazin-5-yl)-3,3-dimethyl-1-[(4-aminophenyl)carbonyl]-2H-indol-2-one]
